Laboratory results reported in patent US8603493B2, “Carbosilane dendrimers, preparation method thereof and use of same” (Dendrico, S.L., priority 2005, dated 2013).

Assays:
[1] = Dendrimer-drug binding test (polyacrylamide gel delay), methotrexate; details: dendrimer 100 μM, charge ratios 1+/1− to 8+/1−, 37° C., 1 hour
Protocol: (§1) The drugs chosen to perform the tests, all with at least one negative charge at physiological pH, were: • Methotrexate (sodium salt): • 1 charge (−) • Supplying laboratory: Almirall • Presentation: 25 mg/ml solution • Excipients: NaCl, NaOH, HCl, double-distilled H2O • Heparin (sodium salt) • Several charges (−) • Supplying laboratory: Rovi • Presentation: 10 mg/ml solution (1000 U) • Excipients: methyl p-oxybenzoate, propyl p-oxybenzoate, NaCl, double-distilled H2O • Insulin (recombinant human insulin) • 4 charges (−) • Supplying laboratory: Novo Nordisk • Product trade name: Actrapid • Presentation: 3.5 mg/ml solution (100 U) • Excipients: ZnCl2, HCl, NaOH, double-distilled H2O
(§2) The determination of the bond and complex formation between the dendrimer and the drug was performed by evaluating the delay in the polyacrylamide gel of the dendrimer bound to drug with respect to the free dendrimer: • Complex formation: It is performed in a final volume of the mixture of 30 μl, which is the maximum volume to load in the gel. To do this, one starts from the necessary quantity of dendrimer that provides a perfectly identifiable band by staining with silver nitrate in the gel once the electrophoresis has been carried out: 20 μl of a 100 μM solution, which corresponds to […] molecules. The drug is added in the 10 μl at different concentrations to produce the chosen (+) and (−) charge ratios, also determining the quantity of drug molecules present in the mixture. An incubation of said mixture was performed at 37° C. during 1 hour to give time for a more thermodynamically stable complex to form, although more time may be needed for its formation. Each complex is performed in duplicate. • Electrophoresis and gel staining: The gels used were 7.5% polyacrylamide/bisacrylamide, prepared with 1.5M Tris pH 8.8. Each electrophoresis was carried out at 90 volts during 4 hours, after which the gel was stained with silver nitrate and photographed. […]

[2] = Dendrimer-drug binding test (polyacrylamide gel delay), heparin; details: dendrimer 100 μM, heparin 10, 1, 0.5, 0.1 U, 37° C., 1 hour
Protocol: as §1, §2

[3] = molecular target: T1, Insulin (recombinant human insulin) (Homo sapiens, UniProt P01308); assay: Dendrimer-drug binding test (polyacrylamide gel delay), insulin; details: dendrimer 100 μM, insulin 1, 0.5, 0.1, 0.05 U, 37° C., 1 hour
T1 construct: Despite having its molecular weight (5825 g/mol) and establishing an average of 4 (−) charges; purchased Novo Nordisk Actrapid (trade name; no catalogue number given)
Protocol: as §1, §2

[4] = system: ODN TAR; assay: Stability of the NN-ODN dendriplex in complete medium with 10% foetal calf serum; details: TAR+NN 2/1, complete medium with 10% FCS
Protocol: With the intention of seeing the stability of the dendriplexes in the presence of serum over time, a test was performed wherein to the samples was added complete medium which contained 10% foetal calf serum (FCS). The following samples were prepared with TAR as ODN:
As indicated, 20′ after its preparation 100 μl of complete medium were added to samples 1, 2 and 3. From each one of the samples 45 μl aliquots were taken after 40 minutes, 4 hours and 17 hours and they were subjected to electrophoresis in agarose gel. The samples were loaded in the gel following the ordering of its numbering from left to right, having previously situated a 100 bp ladder marker. In the last point (17 hours), only the 2/1 ratio complex was tested against ODN without NN. The results are shown in FIG. 7, wherein there appears a date on each one of the wells corresponding to samples with TAR+NN in 2/1 ratio.

[5] = system: HIVNL4.3; assay: HIV inhibition test in PBMC; format: cell-based; details: NN 1, 3 and 5 μM before or after infection, 0.4 MOI, 24 h
Protocol: The HIVNL4.3 virus strain was then added at a concentration of 1 particle per cell (1 MOI). The MT-2 and the virus were cultured during at least 2 hours at 37° C., stirring the culture every 15-30 minutes. Finally, the cultures (cells-virus) were washed twice to remove the virus which had not integrated in the cell genome. The cells were transferred and cultured in 25 cm^2 bottles in the same culture medium. […] All of them were placed in octuplicate and were maintained at 37° C. in CO2 atmosphere during a week. After this time, the titering was read by display of the cytopathic effect and […] formation. The titering was calculated by applying Spearman-Karber's formula^[30], which serves to quantify the number of particles of virus per ml of medium in a culture in which serial dilutions of the concentrate of virus to titer have been seeded in octuplicate. The PBMC were stimulated during 48 hours with 2 μg/ml of PHA and 100 IU of IL-2, to provoke a polyclonal activation; after 24 hours the cells were washed with PBS. […] The cultures were incubated at 37° C. and they were maintained in a humidified atmosphere with 5% CO2. […] To eliminate the influence of the possible toxicity of the dendrimer on the number of cells and the quantity of viral copies, the number of virus copies was adjusted to the percentage of live cells to be able to make comparisons between different dendrimer concentrations. […]

T1 sequence (P01308 25-54 limits assumed): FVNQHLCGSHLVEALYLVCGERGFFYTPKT
T1 sequence (P01308 90-110 limits assumed): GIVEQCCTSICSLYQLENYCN

| Structure (SMILES) | dendrimer-methotrexate complex formation (delay in gel) [1] | dendrimer-heparin complex formation (delay in gel) [2] | dendrimer-insulin complex formation (delay in gel) [3] | time after which the NN dendrimer releases the ODN [4] | infection of PBMC by HIV (HIV DNA copies/10^6 cells adjusted to % live cells) [5] |
| --- | --- | --- | --- | --- | --- |
| C[N+](C)(C)CCO[Si](C)(CCC[Si](C)(CCC[Si](CCC[Si](C)(CCC[Si](C)(OCC[N+](C)(C)C)OCC[N+](C)(C)C)CCC[Si](C)(OCC[N+](C)(C)C)OCC[N+](C)(C)C)(CCC[Si](C)(CCC[Si](C)(OCC[N+](C)(C)C)OCC[N+](C)(C)C)CCC[Si](C)(OCC[N+](C)(C)C)OCC[N+](C)(C)C)CCC[Si](C)(CCC[Si](C)(OCC[N+](C)(C)C)OCC[N+](C)(C)C)CCC[Si](C)(OCC[N+](C)(C)C)OCC[N+](C)(C)C)CCC[Si](C)(OCC[N+](C)(C)C)OCC[N+](C)(C)C)OCC[N+](C)(C)C.[I-].[I-].[I-].[I-].[I-].[I-].[I-].[I-].[I-].[I-].[I-].[I-].[I-].[I-].[I-].[I-] [IM16, 2G-[Si(OCH2CH2NMe3^+I^−)2]8] | complex is not formed | complex is formed | complex is formed |  |  |
| CN(CCO[Si](C)(C)CCC[Si](C)(CCC[Si](CCC[Si](C)(CCC[Si](C)(C)OCCN(C)CC[N+](C)(C)C)CCC[Si](C)(C)OCCN(C)CC[N+](C)(C)C)(CCC[Si](C)(CCC[Si](C)(C)OCCN(C)CC[N+](C)(C)C)CCC[Si](C)(C)OCCN(C)CC[N+](C)(C)C)CCC[Si](C)(CCC[Si](C)(C)OCCN(C)CC[N+](C)(C)C)CCC[Si](C)(C)OCCN(C)CC[N+](C)(C)C)CCC[Si](C)(C)OCCN(C)CC[N+](C)(C)C)CC[N+](C)(C)C.[I-].[I-].[I-].[I-].[I-].[I-].[I-].[I-] [NN, 2G-[Si(O(CH2)2N(Me)(CH2)2NMe3^+I^−)]8] | complex is formed | complex is formed | complex is formed | 17 h | good capacity for preventing the infection of lymphocytes by the HIV virus |
